From PubChem BioAssay (NCI)
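Cultured in 96-well plates, cells were exposed to test compound for 48 hours across five concentrations. Abbreviation: GI50, concentration required for 50% inhibition of growth. TGI marks complete inhibition of growth.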

Assays:
Experiment in all cases: growth of human tumour cells (NCI), 48 h
HS 578T breast = test system: HS 578T breast
UACC-62 melanoma = test system: UACC-62 melanoma
BT-549 breast = test system: BT-549 breast
SF-268 CNS = test system: SF-268 CNS
DU-145 prostate = test system: DU-145 prostate
U251 CNS = test system: U251 CNS
HOP-92 NSCLC = test system: HOP-92 NSCLC
SR leukemia = test system: SR leukemia

Row | SMILES | GI50 (HS 578T breast) | TGI (HS 578T breast) | GI50 (UACC-62 melanoma) | TGI (UACC-62 melanoma) | GI50 (BT-549 breast) | TGI (BT-549 breast) | GI50 (SF-268 CNS) | TGI (SF-268 CNS) | GI50 (DU-145 prostate) | TGI (DU-145 prostate) | GI50 (U251 CNS) | TGI (U251 CNS) | GI50 (HOP-92 NSCLC) | TGI (HOP-92 NSCLC) | GI50 (SR leukemia) | TGI (SR leukemia)
1 | O=C(NN1C(=O)CSC12CCCC2)C(O)c1ccccc1 (stereo not given) | > 100 µM | > 100 µM | > 100 µM | > 100 µM | > 100 µM | > 100 µM | > 100 µM | > 100 µM | > 100 µM | > 100 µM | > 100 µM | > 100 µM | > 100 µM | > 100 µM | – | –
2 | COc1cc2ncn(-c3cc(OCc4ccccc4C(F)(F)F)c(C(C)=O)s3)c2cc1OC | 19.3 µM | > 25 µM | > 25 µM | > 25 µM | > 25 µM | > 25 µM | > 25 µM | > 25 µM | > 25 µM | > 25 µM | > 25 µM | > 25 µM | 10.8 µM | > 25 µM | > 25 µM | > 25 µM
3 | Nc1nc(N)c(N=Nc2ccc(C(=O)O)c(O)c2)c(N)n1 | – | > 100 µM | – | > 100 µM | – | > 100 µM | – | > 100 µM | – | > 100 µM | – | > 100 µM | – | > 100 µM | – | > 100 µM
4 | CSc1ccc(C2=NN(C(C)=O)C(c3ccc(F)cc3)C2)cc1 (stereo not given) | 20.8 µM | 49.7 µM | 7.97 µM | 21.1 µM | 20.3 µM | 40.2 µM | 14.9 µM | 42.5 µM | 23.8 µM | 61.7 µM | 5.96 µM | 21.4 µM | 10.1 µM | 22.1 µM | – | –
5 | CO[C@@H]1[C@H]2[C@@H](C)c3ccoc3C[C@@H]2[C@@]2(C)CC[C@H](OC(=O)c3ccccc3)[C@](C)(C(=O)O)[C@]2(O)[C@@H]1OC(=O)c1ccccc1 | 24.8 µM | > 50 µM | 7.12 µM | 13.6 µM | 8.99 µM | 29.7 µM | 21.2 µM | > 50 µM | 12.1 µM | > 50 µM | 5.87 µM | 12 µM | – | – | 10.9 µM | > 50 µM
6 | O=C(Nc1ccc2c(c1)OCO2)C(=O)c1c[nH]c2cc(F)ccc12 | 2.63 µM | 62.7 µM | 0.238 µM | 1.58 µM | 9.35 µM | 98.7 µM | 4.52 µM | 22.1 µM | 3.52 µM | 44.6 µM | 9.17 µM | 51.7 µM | 1.12 µM | 5.6 µM | 2.85 µM | 19.6 µM
7 | CC(C)(C)c1ccc(O)c(CN(Cc2cc(C(C)(C)C)ccc2O)C2CCCCC2)c1 | – | 45.3 µM | – | 31.4 µM | – | 46.5 µM | – | > 53.9 µM | – | 45.4 µM | – | 30.4 µM | – | 23.9 µM | – | 31.4 µM
8 | COc1ccc(/C=C2\CC(C)CC3C2=NN(c2ccccc2)C3c2ccc(OC)c(OC)c2)cc1OC (stereo not given) | > 100 µM | > 100 µM | 4.29 µM | 17.3 µM | 4.58 µM | 79.7 µM | 3.31 µM | 37.2 µM | 4.17 µM | > 100 µM | 3.92 µM | 15.3 µM | 5.32 µM | > 100 µM | 2.82 µM | 12.4 µM
9 | CC[C@]12C=CCN3CC[C@@]4(c5ccc(OC)cc5N(C)[C@H]4[C@@](O)(C(=O)OC)[C@@H]1OC(=O)CCC(=O)N[C@H](Cc1c[nH]c4ccccc14)C(=O)OC)[C@@H]32 | 5.52 µM | 28.7 µM | 2.42 µM | 7.19 µM | 7.68 µM | 41 µM | 4.88 µM | 25.9 µM | 4.44 µM | 20.3 µM | 8.08 µM | 24.9 µM | 4.02 µM | 24.4 µM | 3.55 µM | > 100 µM
10 | CC[C@@H](C)Nc1cc(C(=O)NC2CC3CCC(C2)N3c2ccc(C(=O)C3CC3)cn2)c(C)cc1C(N)=O (stereo not given in full) | 0.186 µM | > 100 µM | 0.036 µM | 12.1 µM | 5.54 µM | > 84.9 µM | 0.357 µM | > 100 µM | 0.0663 µM | > 62.9 µM | 0.0669 µM | > 100 µM | 0.0422 µM | 0.599 µM | 0.0189 µM | > 47.6 µM
11 | Cc1cc(NNC(=O)c2ccccc2O)nc(Nc2nc3ccccc3o2)n1 | 3.26 µM | 37.5 µM | 0.966 µM | 11.4 µM | 4.52 µM | 28.2 µM | 1.13 µM | 40.8 µM | 1.83 µM | 18.3 µM | 0.628 µM | 13.4 µM | 1.11 µM | 13.9 µM | 0.602 µM | 7.31 µM
12 | Cc1cn2c(/C=C3/C(=O)Nc4ccc(F)cc43)c(C)nc2s1 | 7.98 µM | 28.2 µM | 3.85 µM | 48.3 µM | 8.52 µM | > 50 µM | 12.6 µM | > 50 µM | 9.58 µM | 32.3 µM | 5.96 µM | > 50 µM | 4.74 µM | 29 µM | 1.67 µM | 5.14 µM
13 | O=C(NNC(=S)Nc1ccccc1)c1ccccn1 | 23.7 µM | > 100 µM | – | – | 7.41 µM | > 100 µM | 2.66 µM | > 100 µM | 3.8 µM | > 100 µM | 1.49 µM | > 100 µM | – | – | 1.63 µM | > 100 µM
14 | O=C(Nc1cccnc1)c1ccc2ccc3ccc(C(=O)Nc4cccnc4)nc3c2n1 | 0.434 µM | > 100 µM | 0.205 µM | > 100 µM | – | – | 0.225 µM | > 100 µM | 0.195 µM | > 100 µM | 0.0613 µM | > 100 µM | – | – | 0.155 µM | > 100 µM
15 | COc1ccc(CNc2cnc3cc(N)cc(N)c3n2)cc1 | 24.2 µM | 69.3 µM | 18.1 µM | 32.4 µM | 17.8 µM | 37.5 µM | 28.9 µM | 81.8 µM | 19.4 µM | 49.2 µM | 17.2 µM | 32.5 µM | 24.1 µM | 54.3 µM | – | –
16 | CC(O)CN1c2ccccc2Sc2ccc(Cl)cc21 (stereo not given) | – | > 10 µM | – | > 10 µM | – | > 10 µM | – | > 10 µM | – | > 10 µM | – | > 10 µM | – | > 10 µM | – | –
